{
  "source": "paper PMC5960991",
  "about": "(Nature chemistry, 2017)",
  "target": "T1, NapT8 (Streptomyces sp. CNQ-525, UniProt A7KH30)",
  "T1 sequence (A7KH30 1-297)": "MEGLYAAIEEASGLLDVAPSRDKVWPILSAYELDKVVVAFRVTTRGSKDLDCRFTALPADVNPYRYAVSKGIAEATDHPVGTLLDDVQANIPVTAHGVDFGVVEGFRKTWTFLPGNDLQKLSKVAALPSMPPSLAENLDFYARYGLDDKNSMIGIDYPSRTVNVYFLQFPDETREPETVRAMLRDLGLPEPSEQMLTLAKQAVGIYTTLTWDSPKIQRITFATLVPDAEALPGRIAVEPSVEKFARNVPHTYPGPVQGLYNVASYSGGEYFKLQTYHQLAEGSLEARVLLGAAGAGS",
  "experiment": "reversed-phase HPLC turnover assay",
  "type": "biochemical",
  "conditions": "34 as prenyl acceptor; MgCl2",
  "data": [
    {"smiles": "CC(C)=CCOP(=O)(O)OP(=O)(O)O", "note": "[dimethylallyl pyrophosphate]", "values": [
      {"measurement": "reversed-phase HPLC turnover assay", "result": "NapT8 was only active when the isoprenoid DMAPP was utilized"}
    ]}
  ]
}
